The conditions of data set [1]: Borsa et al 1988; cited from earlier work.
The nature of data set [2]: Microenvironmental pH of fosfomycin sodium, with and without organic acid. It is filed as physicochemical. The text has this: Fosfomycin may be granulated by using methods such as slugging, low or high shear granulation or fluid bed granulation. For example, for high shear granulation (e.g., Diosna Mixer Granulator), fosfomycin can be blended with a water soluble filler (e.g., lactose, sucrose, mannitol and sorbitol) and granulated with binder (sugars like sucrose and liquid glucose; natural binders like starch and pre-gelatinized starch; synthetic/semisynthetic polymers like HPMC, povidone, PEG, polyvinyl alcohol) solution. The granules are dried, milled and blended with an organic acid (e.g., citric acid, tartaric acid, succinic acid, malic acid, fumaric acid), anti-adherent (e.g., talc, fumed silica) and lubricant (sodium stearyl fumarate). The organic acid serves as a neutralizer counteracting microenvironmental high alkalinity resulting from fosfomycin sodium. Fosfomycin sodium microenvironmental pH of about 9 would be reduced to pH 6-8 due to the presence of an organic acid. The final blend is compressed into tablets (1.4-1.7 g/tablet) followed by film coating (e.g., Opadry) in a conventional coating pan. These formulations can provide≧80% fosfomycin dissolution in less than 30 minutes at pH 1.2.

The conditions of data set [3]: compared with the other fosfomycin salt (Bergan 1990); cited from earlier work.
The conditions of data set [4]: cited from earlier work.

These results are taken from US20150132382A1, “COMPOSITIONS AND METHODS OF TREATMENT COMPRISING FOSFOMYCIN DISODIUM” (Forest Laboratories Holdings Ltd., priority 2013, published 2015).

In the case of `C[C@@H]1O[C@@H]1P(=O)(O)O` [Fosfomycin disodium, fosfomycin disodium], in data set [1], the gastric irritation result is listed as “known to cause gastric irritation”. Further, in data set [2], the “microenvironmental pH” value is “about 9”.
`C[C@@H]1O[C@@H]1P(=O)([O-])[O-].[Ca+2]` [fosfomycin calcium]: the bioavailability result in data set [3] was “lower bioavailability”. The solubility in water entry in data set [4] is given as “slightly soluble in water”.
